What was measured:
Assay type in all cases: in vivo, mouse
B16F10 melanoma tumors [1] = assay: Example 3A: TLR3 agonist with anti-PD-1, anti-OX40, anti-4-1BB antibodies, murine B16F10 melanoma model; conditions: poly(I:C) 2.5 mg/kg it x1 day 9, anti-PD-1 15, anti-OX40 5, anti-4-1BB 3 mg/kg ip x3
Source text: This example illustrates the therapeutic activity of a TLR3 agonist in combination with i) an antagonist anti-PD-1 antibody; ii) an antagonist anti-PD-1 antibody and an agonist anti-OX40 antibody; iii) an antagonist anti-PD-1 antibody and an agonist anti-4-1-BB antibody; and iv) an antagonist anti-PD-1 antibody, an agonist anti-4-1-BB antibody, and an agonist anti-OX40 antibody in a murine B16F10 melanoma model.
(§1) Six to eight week old female C57BL/6 mice were purchased from the Jackson Laboratories. All animals were housed in a pathogen free vivarium facility at Pfizer and experiments were conducted according to the protocols in accordance with the Institutional Animal Care and Use Committee (IACUC) guidelines.
(§2) The B16F10 melanoma cell line was purchased from American Type Culture Collection (ATCC). Cells were cultured in Dulbecco's Modified Eagle's Medium (DMEM) supplemented with 10% fetal bovine serum (FBS), 2 mM L-glutamine at 37° C. in 5% carbon dioxide (CO2), and IMPACT-tested for pathogens at Research Animal Diagnostic Laboratory (RADIL) (Columbia, MO). Pathogen-free cells growing in an exponential growth phase were harvested and used for tumor inoculation.
(§3) The TLR3 agonist was polyinosine-polycytidylic acid [poly(I:C)], high molecular weight [a synthetic analog of double-stranded RNA (dsRNA)], purchased from InvivoGen. Poly(I:C) was dosed at 2.5 mg/kg, in phosphate buffered saline (PBS) (Life Technologies), intratumorally (it) for one dose 9 days after tumor inoculation.
(§4) Therapeutic mouse anti-mouse 4-1BB mAb (mouse immunoglobulin G1 [mIgG1]), derived from the parental clone MAB9371 (R&D Systems), was prepared in-house. Therapeutic mouse anti-OX40 antibodies with the mIgG1 isotype (anti-OX40 mIgG1) were derived from parental clone OX86 in house. Therapeutic mouse anti-mouse PD-1 mAb (mIgG1) was prepared in-house. Anti-PD-1, anti-OX40 antibody and anti-4-1BB antibodies were dosed at 15 mg/kg, 5 mg/kg and 3 mg/kg, respectively, in phosphate buffered saline (PBS) (Life Technologies), and dosed at 0.2 mL per mouse intraperitoneally (ip) for 3 doses 3 to 4 days apart.
(§5) C57BL/6 mice were inoculated subcutaneously at the right flank with 0.3×10^6 B16F10 cells in 0.1 mL of PBS. When tumors reached target size, mice were randomized into treatment groups. Treatment was started on the same day as randomization. Tumor size was measured 3-4 times weekly in 2 dimensions using a caliper, and the volume was calculated in cubic millimeters using the formula: V=0.5 L×W^2 where L is the longest diameter of the tumor and W is the diameter perpendicular to L. Body weight was recorded weekly.
Results from Example 3A are shown in FIGS. 3A-3L and summarized in Table 3 below [mean tumor size±standard deviation (SD)]. Statistical analyses were performed using GraphPad Prism 6.0. 2-way ANOVA was applied to compare the statistical differences among multiple groups relative to the isotype control or other treatment groups. P<0.05 was considered as significant difference. Tumor measurements are in mm^3. For most treatment groups, more days post-tumor inoculation (also referred to as “days post implantation”) are shown in FIGS. 3A-3L than in the corresponding information in Table 3 (due to the reduction in the number of mice in most groups over the course of the study, and the increase in SD with a reduced number of mice).

B16F10 melanoma tumors [2] = assay: Example 1: TLR3 agonist with anti-OX40 and/or anti-4-1BB antibody, murine B16F10 melanoma model; conditions: poly(I:C) 2.5 mg/kg it x1 day 9, anti-OX40 5 mg/kg, anti-4-1BB 3 mg/kg ip x3
Method: This example illustrates the therapeutic activity of a TLR3 agonist in combination with one or both of: i) an agonist anti-OX40 antibody and ii) an agonist anti-4-1BB antibody in a murine B16F10 melanoma model.
as §1
as §2, with “Mo.).” for “MO).”
as §3
as §4, with “Anti-OX40” for “Therapeutic mouse anti-mouse PD-1 mAb (mIgG1) was prepared in-house. Anti-PD-1, anti-OX40”, “at” for “at 15 mg/kg,”
as §5, with “0.3 x 10^6” for “0.3×10^6”
Results are shown in FIGS. 1A-1H and summarized in Table 1 below [mean tumor size±standard deviation (SD)]. Statistical analyses were performed using GraphPad Prism 6.0. 2-way ANOVA was applied to compare the statistical differences among multiple groups relative to the isotype control or other treatment groups. P <0.05 was considered as significant difference. Tumor measurements are in mm^3. For most treatment groups, more days post-tumor inoculation (also referred to as “days post implantation”) are shown in FIGS. 1A-1 H than in the corresponding information in Table 1 (due to the reduction in the number of mice in most groups over the course of the study, and the increase in SD with a reduced number of mice).

[3] = tested on: dendritic cells in the draining lymph nodes (CD11c+/CD11b+/CD8+ cells); assay: Example 5: activated dendritic cells in the draining lymph nodes of B16F10 tumor mice (FACS); conditions: 24 hours after treatment, 5 mg/kg, mean from 5 mice
Method: (§6) This example illustrates activation of immune cells in a mouse tumor model in response to a TLR3 or TLR9 agonist.
as §1
as §2, with “Mo.).” for “MO).”
(§7) The TLR3 agonist was polyinosine-polycytidylic acid [poly(I:C)], high molecular weight [a synthetic analog of double-stranded RNA (dsRNA)], purchased from InvivoGen. The TLR9 agonist was CpG24555
(§8) On day 0, C57BL/6 mice were inoculated subcutaneously at the right flank with 5×10^5 B16F10 cells in PBS. […] The treatment groups were 1) PBS (control); 2) poly(I:C) (TLR3 agonist); 3) CpG24555 (TLR9 agonist). Treatment was started on the same day as randomization. Poly(I:C) and CpG24555 were dosed at 5 mg/kg, in phosphate buffered saline (PBS) (Life Technologies).
(§9) 24 hours after treatment, the mice were euthanized and their spleen, draining lymph nodes, and B16F10 tumor were harvested. The harvested spleen, draining lymph nodes, and B16F10 tumor were dissociated to single cell suspensions, and then stained for evaluation of multiple markers by FACS analysis. To evaluate dendritic cell activation, cells were incubated with anti-CD11c, anti-CD11b, and anti-CD8 mAbs, and additionally one of anti-CD40, anti-CD86, or anti-PD-L1 mAbs. To evaluate effector T cell activation, cells were incubated with anti-CD8 and anti-CD44 mAbs, and additionally one of anti-OX40 or anti-4-1BB mAbs. […]

[4] = tested on: effector T cells in the tumor (TILs) (CD8+/CD44+ cells); assay: Example 5: activated effector T cells in the tumor (TILs) of B16F10 tumor mice (FACS); conditions: 24 hours after treatment, 5 mg/kg, mean from 5 mice
Method: as §6, §1
as §2, with “Mo.).” for “MO).”
as §7
On day 0, C57BL/6 mice were inoculated subcutaneously at the right flank with 5×10^5 B16F10 cells in PBS. […] The treatment groups were 1) PBS (control); 2) poly(I:C) (TLR3 agonist); 3) CpG24555 (TLR9 agonist). Treatment was started on the same day as randomization. […]

[5] = tested on: dendritic cells in the spleen (CD11c+/CD11b+/CD8+ cells); assay: Example 5: activated dendritic cells in the spleen of B16F10 tumor mice (FACS); conditions: 24 hours after treatment, 5 mg/kg, mean from 5 mice
Method: as §6, §1
as §2, with “Mo.).” for “MO).”
as §7, §8, §9

“polyinosine-polycytidylic acid [TLR3 agonist]” was tested, and the “Mean Tumor Size” value (B16F10 melanoma tumors [1]; day 9 post-tumor inoculation) was 74 mm^3, the “Mean Tumor Size” value (B16F10 melanoma tumors [1]; day 13 post-tumor inoculation) was 156 mm^3 and the “Mean Tumor Size” value (B16F10 melanoma tumors [1]; day 15 post-tumor inoculation) was 236 mm^3. For the same substance, the “Mean Tumor Size” value (B16F10 melanoma tumors [1]; day 17 post-tumor inoculation) was 349 mm^3, the “Mean Tumor Size” value (B16F10 melanoma tumors [1]; day 20 post-tumor inoculation) was 796 mm^3 and the “Mean Tumor Size” value (B16F10 melanoma tumors [1]; day 22 post-tumor inoculation) was 1206 mm^3. The “Mean Tumor Size” value (B16F10 melanoma tumors [2]; day 9 post-tumor inoculation) was 76 mm^3, the “Mean Tumor Size” value (B16F10 melanoma tumors [2]; day 10 post-tumor inoculation) was 116 mm^3 and the “Mean Tumor Size” value (B16F10 melanoma tumors [2]; day 12 post-tumor inoculation) was 151 mm^3. The “Mean Tumor Size” value (B16F10 melanoma tumors [2]; day 14 post-tumor inoculation) was 196 mm^3, the “Mean Tumor Size” value (B16F10 melanoma tumors [2]; day 16 post-tumor inoculation) was 309 mm^3 and the “Mean Tumor Size” value (B16F10 melanoma tumors [2]; day 18 post-tumor inoculation) was 405 mm^3. For the same substance, the “Mean Tumor Size” value (B16F10 melanoma tumors [2]; day 20 post-tumor inoculation) was 678 mm^3, the “% CD40+ of CD11c+/CD11b+/CD8+ cells (activated dendritic cells)” value [3] was 9.9% and the “% CD86+ of CD11c+/CD11b+/CD8+ cells (activated dendritic cells)” value [3] was 7.5%. For the same substance, the “% PD-L1+ of CD11c+/CD11b+/CD8+ cells (activated dendritic cells)” value [3] was 9%, the “% 4-1BB+ of CD8+/CD44+ cells (activated effector T cells)” value [4] was 36.8% and the “% OX-40+ of CD8+/CD44+ cells (activated effector T cells)” value [4] was 55.3%. For the same substance, the “% CD40+ of CD11c+/CD11b+/CD8+ cells (activated dendritic cells)” value [5] was 20%, the “% CD86+ of CD11c+/CD11b+/CD8+ cells (activated dendritic cells)” value [5] was 22.2% and the “% PD-L1+ of CD11c+/CD11b+/CD8+ cells (activated dendritic cells)” value [5] was 23%.

Reference: patent publication US20220370606A1, “Combination Treatments Of Cancer Comprising A TLR Agonist” (Pfizer Inc., priority 2018, published 2022)
